“Also recorded” adds a separate entry of the source.
How the values were obtained:
[1] = tested on: HSE dermal fibroblasts (CXCL8); experiment: CXCL8 induction in Human Skin Equivalents (HSE) skin organoids; type: cell-based; conditions: HSE epidermis treated with 30 μM iE-DAP for 24 h
[2] = tested on: primary human foreskin keratinocytes; experiment: Propidium Iodide (PI) uptake assay in primary human foreskin keratinocytes; type: cell-based; conditions: indicated iE-DAP doses, standard tissue culture
[3] = tested on: mouse peritoneum (NOD1/NOD2 response); experiment: neutrophil recruitment to the peritoneum after intraperitoneal injection; type: in vivo; conditions: 3 h, iE-DAP 30 μM, MDP 10 μM
Experimental: For peritoneal cell extraction, animals were euthanized and cells from peritoneal cavity were isolated by peritoneal lavage (58). Harvested cell suspensions were centrifuged at 300 g for 5 min at 4° C. and resuspended in FACS buffer.
(§1) 1×10^6 cells were stained with F4/80-PE/Cy7 (1:200), CD45-alexaflour700 (1:200) and Gr1-PE (1:200) for 30 min on ice in the dark. Samples were washed three times with FACS buffer and analyzed with a Cytek Aurora cytometer. Results were analyzed with FlowJo software (Tree Star, USA).

[4] = tested on: mouse skin (NOD1/NOD2 response); experiment: neutrophil recruitment to pinnae after intradermal injection; type: in vivo; conditions: TCT 8 μM, iE-DAP 30 μM
Experimental: […] After 3 h, both ears were individually harvested, and stored in ice cold PBS on ice until further processing for flow cytometry staining.
Pinnae were cut into small pieces and incubated for 30 min at 37° C. in a solution of 1 mg/ml collagenase (Sigma) in DMEM media containing 10% FBS. Ice-cold FACS buffer (2% FBS in PBS) was added to skin samples to stop the reaction. Then samples were placed on 70 μm cell strainers and ground using a cell strainer pestle to create a single cell suspension. Cells were spun at 180 g for 5 min at 4° C. and resuspended in FACS buffer.
as §1

Slc46a2 = target: T1, Slc46a2 (Mus musculus, UniProt Q8CA03); experiment: click-muropeptide uptake into keratinocytes (CalFluor 488 Azide, confocal imaging and lysate fluorescence); type: cell-based; conditions: WT or Nod1−/− keratinocytes, 30 μM click-iE-DAP; MTX 250 μM or unlabeled iE-DAP 30 μM
T1 construct: primary mouse keratinocytes, which express Slc46a2 and Nod1; endogenous in cells; host or cells: primary mouse epidermal keratinocytes (WT or Nod1-/-; Slc46a2-/- cells served as the negative control)
T1 sequence (Q8CA03 1-479): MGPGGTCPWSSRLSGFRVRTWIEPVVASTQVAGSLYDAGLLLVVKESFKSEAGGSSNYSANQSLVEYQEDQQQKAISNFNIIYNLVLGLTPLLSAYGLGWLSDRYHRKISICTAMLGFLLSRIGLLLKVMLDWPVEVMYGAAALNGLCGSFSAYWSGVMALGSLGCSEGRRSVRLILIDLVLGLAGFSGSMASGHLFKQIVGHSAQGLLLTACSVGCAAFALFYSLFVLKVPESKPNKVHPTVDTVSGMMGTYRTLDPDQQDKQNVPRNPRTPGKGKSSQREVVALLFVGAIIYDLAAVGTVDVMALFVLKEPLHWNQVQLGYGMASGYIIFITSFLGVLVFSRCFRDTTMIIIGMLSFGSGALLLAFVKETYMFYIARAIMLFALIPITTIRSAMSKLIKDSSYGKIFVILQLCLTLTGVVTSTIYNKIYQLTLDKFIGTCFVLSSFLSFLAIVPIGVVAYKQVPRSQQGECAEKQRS
Experimental: For visualization, mouse keratinocytes were challenged with click-iE-DAP (30 μM) or click-MDP (20 μM) 37° C. for 30-60 min, cells washed 2× with 1×PBS to remove access of click-muropeptides and fixed with 4% paraformaldehyde in PBS at RT for 10 min. Cells were permeabilized with 1% Triton-X in PBS for 10 min at RT and blocked with 1% BSA in PBS. These permeabilized cells were then incubated in click-reaction conditions (250 μM CuSO4, 35 μM BTAA, 60 μM sodium ascorbate) with 2.5 μM CalFluor 488 Azide at RT for 30 mins. Cells were then washed and mounted on slides, with DAPI containing mounting media. Slides were imaged with a Leica SP8 confocal microscope.

[5] = tested on: primary mouse keratinocytes; experiment: cytokine ELISAs from primary keratinocyte culture media; type: cell-based
Experimental: Adult (6-8 weeks) mouse keratinocytes were isolated from male or female animals using protocols described previously (57). In brief, tail skin was incubated in 1 mg/ml Dispase II (Roche) overnight at 4° C. The epidermis was physically removed from the dermis with tweezers following Dispase II treatment, subsequently digested with TrypLE (Thermo) for 20 min at room temperature, and keratinocytes were detached by vigorously shaking in EpiLife culture medium and filtered with a 70 μm strainer (Fisher scientific). Isolated cells were seeded at a density of 10^5 cells/cm^2 cultured with EpiLife (Gibco) in 12-well plates precoated with coating matrix (Gibco) and used between 3 and 5 days after isolation.
For cytokine ELISAs, primary keratinocytes were either mock-treated or treated with 8 μM TCT or 30 μM iE-DAP for 24 h Culture medium was harvested and centrifuged at 500 g for 15 mins and analyzed using ELISA kits detecting CXCL1 (KC), IL-6, TNF-α, IL-1α and IL-1β (R&D systems) following the manufacturer's protocols. In brief, 96-well ELISA plates were coated with capture antibody overnight at room temperature. The next day, the plate was washed three times with wash buffer and incubated with harvested media (100 μl) for 2 h followed by three washes and then probed with biotin-labelled detection antibody for 2 h. After three washes with wash buffer, plates were incubated with HRP-streptavidin for 20 min at room temperature (RT), developed with TMB (3,3′,5,5″-tetramethylbenzidine) substrate for 20 min at RT, and then stopped with IN sulfuric acid. Plate was analyzed at 450 nm with wavelength correction at 540 nm.

[6] = tested on: primary dermal fibroblasts; experiment: CXCL1 (KC) ELISA from primary dermal fibroblasts; type: cell-based, mouse; conditions: iE-DAP 30 μM or IL-1α 10 ng/ml, 24 hrs
Experimental: Mouse dermal fibroblasts were isolated as described herein. In brief, mouse pinnae were incubated on a table shaker (200 rpm) in a collagenase D-pronase solution [2.5 mg/ml collagenase-D (Sigma), 20 mg/ml pronase (Sigma) diluted in 1M Tris, pH 8.0 and containing 1 μM EDTA (Sigma)] for 90 min at 37° C. Fibroblasts were then isolated by pressing digested skin through a 70 μm cell strainer, and cells were collected and cultured in RPMI 1640 medium with 10% FBS, 50 μM 2-mercaptoethanol, 100 μM asparagine, 2 mM glutamine, 1% penicillin-streptomycin for 2-4 passages before stimulating with immune elicitors, and/or harvesting media or cells.
For cytokine ELISAs from dermal fibroblast, cells were challenged with IL-1α (10 ng/ml) or 30 μM iE-DAP for 24 h, and media was collected and processed for ELISA as described above.

tape stripped mouse skin = experiment: neutrophil recruitment after topical application to tape stripped skin; type: in vivo; conditions: topical 10 μl of 30 μM iE-DAP on tape stripped skin, 3 h
Experimental: The epidermal barrier of the dorsal ear pinnae was disrupted by mild tape stripping. A small piece of surgical tape (Transpore surgical tape) was manually applied to the skin and removed, repeated 5 consecutive rounds using a fresh piece of tape for each round. Then, 10^7 CFU C. accolens or 30 μM iE-DAP in 50% glycerol was applied to one pinna and 50% glycerol was applied to contralateral pinna. After 3 h mice were euthanized, and pinnae were processed as described above.

NC(CCCC(NC(=O)CC[C@@H](N)C(=O)O)C(=O)O)C(=O)O (stereo in doubt) [iE-DAP, γ-D-Glu-mDAP]
CXCL8 in HSE dermal fibroblasts [1]: induction of CXCL8; also recorded: High expression of CXCL8
membrane permeabilization of primary human keratinocytes (PI uptake) [2]: failed to induce; also recorded: did not induce cell permeabilization
neutrophil recruitment response in Slc46a2−/− mice [3]: did not respond
neutrophil recruitment response in Slc46a3−/− mice [3]: responding normally
neutrophil / leukocyte recruitment to the skin in WT mice ([4]; intradermal 10 μl, LPS 10 μg/ml, 1 to 24 h): recruited inflammatory cells
neutrophil recruitment response in Slc46a2-deficient mice compared to WT ([4]; intradermal, 3 h, Tri-DAP 25 μM, C12-iE-DAP 20 μM, MDP 10 μM): failed to respond; also recorded: significantly reduced
effect on cytosolic accumulation / cellular uptake of click-iE-DAP (Slc46a2): interfered
IL-1α release by keratinocytes ([5]; 30 μM iE DAP, 24 h): released IL-1α
induction of TNF, IL-6, IL-1β and IL-17 in keratinocytes ([5]; 30 μM iE-DAP, 24 hrs): not induced
CXCL1 (KC) response of primary dermal fibroblasts [6]: did not respond; also recorded: unresponsive
neutrophil recruitment response of WT skin (tape stripped mouse skin): responded

From US20250161399A1, “TARGETING SLC46A2-MEDIATED MUROPEPTIDE TRANSPORT TO TREAT PSORIASIS” (University of Massachusetts, priority 2021, published 2025)
